Literature values in patent publication US20240277651A1, “MIXED GLYCEROL ESTER COMPOSITION” (priority 2021, published 2024).

System: pathogenic, gram-positive bacteria
Conditions: Skrivanova et al, Veterinarni Medicina, 51, 2006

Compound: CCCCCCCCCCCC(=O)OCC(O)CO (stereo not shown) [monolaurin]
- Inhibitory action on pathogenic, gram-positive bacteria: inhibitory action
